Measured values from publication PMC8232238 (Cells, 2021).

Key:
Format in all cases: biochemical
HDAC1 = target: T1, HDAC1 (Homo sapiens, UniProt Q13547); experiment: HDAC1 enzyme inhibition assay (single point and 10-dose IC50, Reaction Biology)
T1 construct: purchased Reaction Biology corporation (contract assay)
Method: (§1) All IC50 measurements we performed by Reaction Biology corporation. Compounds were tested in
(§2) dilution starting at 1 uM. […]
(§3) (RHK(Ac)K(Ac)AMC). IC50 values were calculated using the GraphPad Prism 4 program based on a
(§4) sigmoidal dose-response equation. […]

HDAC11 = target: T2, HDAC11 (Homo sapiens, UniProt Q96DB2); experiment: HDAC11 enzyme inhibition assay (single point and 10-dose IC50, Reaction Biology)
T2 construct: purchased Reaction Biology corporation (contract assay)
T2 sequence (Q96DB2 1-347): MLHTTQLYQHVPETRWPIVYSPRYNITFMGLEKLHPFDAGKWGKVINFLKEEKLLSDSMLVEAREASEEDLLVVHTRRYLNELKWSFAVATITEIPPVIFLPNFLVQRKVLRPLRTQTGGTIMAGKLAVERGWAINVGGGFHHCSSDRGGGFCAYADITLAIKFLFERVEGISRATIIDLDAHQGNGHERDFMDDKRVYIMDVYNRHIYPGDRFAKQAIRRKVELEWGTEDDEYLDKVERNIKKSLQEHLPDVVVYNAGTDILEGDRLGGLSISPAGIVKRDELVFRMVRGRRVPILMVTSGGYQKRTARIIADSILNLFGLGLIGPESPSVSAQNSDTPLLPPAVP
Method: (§5) Against HDAC6, inhibition was determined using 0.01 µM of the inhibitor.
All IC50 measurements we performed by Reaction Biology corporation. Compounds were tested in […]
dilution starting at 1 uM.
Substrate for HDAC11: 50 uM Fluorogenic HDAC Class2a Substrate […]
(Trifluoroacetyl Lysine).
(RHK(Ac)K(Ac)AMC). IC50 values were calculated using the GraphPad Prism 4 program based on a sigmoidal dose-response equation. […]

HDAC6 = target: T3, HDAC6 (Homo sapiens, UniProt Q9UBN7); experiment: HDAC6 enzyme inhibition assay (single point and 10-dose IC50, Reaction Biology)
T3 construct: purchased Reaction Biology corporation (contract assay)
T3 sequence (Q9UBN7 1-1215): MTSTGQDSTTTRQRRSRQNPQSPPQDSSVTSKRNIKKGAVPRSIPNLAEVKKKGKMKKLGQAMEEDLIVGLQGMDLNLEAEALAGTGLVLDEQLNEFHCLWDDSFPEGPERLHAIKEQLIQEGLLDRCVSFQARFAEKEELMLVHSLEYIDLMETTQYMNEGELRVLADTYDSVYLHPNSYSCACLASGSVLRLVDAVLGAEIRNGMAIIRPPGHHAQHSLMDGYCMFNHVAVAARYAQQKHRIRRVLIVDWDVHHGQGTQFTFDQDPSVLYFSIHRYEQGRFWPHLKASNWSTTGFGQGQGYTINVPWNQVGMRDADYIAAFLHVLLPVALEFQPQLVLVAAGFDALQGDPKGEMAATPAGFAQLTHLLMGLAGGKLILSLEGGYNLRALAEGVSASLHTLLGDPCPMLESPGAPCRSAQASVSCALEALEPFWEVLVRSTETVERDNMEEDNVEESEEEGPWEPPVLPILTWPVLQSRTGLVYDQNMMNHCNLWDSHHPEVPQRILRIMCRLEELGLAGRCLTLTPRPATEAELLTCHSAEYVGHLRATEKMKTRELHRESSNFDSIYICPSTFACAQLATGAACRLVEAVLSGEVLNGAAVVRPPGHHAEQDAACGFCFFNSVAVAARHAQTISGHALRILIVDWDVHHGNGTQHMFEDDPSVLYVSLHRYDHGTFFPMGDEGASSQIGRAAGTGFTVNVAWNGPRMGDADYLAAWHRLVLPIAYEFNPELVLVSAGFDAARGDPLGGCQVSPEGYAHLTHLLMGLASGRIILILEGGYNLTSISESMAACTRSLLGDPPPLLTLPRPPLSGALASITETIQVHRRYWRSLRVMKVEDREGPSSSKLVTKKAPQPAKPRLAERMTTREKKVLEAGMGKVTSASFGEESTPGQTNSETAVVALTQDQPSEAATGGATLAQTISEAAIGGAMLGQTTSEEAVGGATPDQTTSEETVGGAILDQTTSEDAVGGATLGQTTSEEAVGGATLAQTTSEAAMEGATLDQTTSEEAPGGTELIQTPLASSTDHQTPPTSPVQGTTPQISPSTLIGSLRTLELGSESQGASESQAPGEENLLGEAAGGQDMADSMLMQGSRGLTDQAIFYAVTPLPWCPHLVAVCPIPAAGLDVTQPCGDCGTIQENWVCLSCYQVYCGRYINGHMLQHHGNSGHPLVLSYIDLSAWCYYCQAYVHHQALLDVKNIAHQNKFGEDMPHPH
Method: as §5, §1, §2, §3, §4

[1] = average of two independent measurements
[2] = single point, inhibitor 1.0 μM, average of two measurements, ±2%

T1 sequence (Q13547 whole entry): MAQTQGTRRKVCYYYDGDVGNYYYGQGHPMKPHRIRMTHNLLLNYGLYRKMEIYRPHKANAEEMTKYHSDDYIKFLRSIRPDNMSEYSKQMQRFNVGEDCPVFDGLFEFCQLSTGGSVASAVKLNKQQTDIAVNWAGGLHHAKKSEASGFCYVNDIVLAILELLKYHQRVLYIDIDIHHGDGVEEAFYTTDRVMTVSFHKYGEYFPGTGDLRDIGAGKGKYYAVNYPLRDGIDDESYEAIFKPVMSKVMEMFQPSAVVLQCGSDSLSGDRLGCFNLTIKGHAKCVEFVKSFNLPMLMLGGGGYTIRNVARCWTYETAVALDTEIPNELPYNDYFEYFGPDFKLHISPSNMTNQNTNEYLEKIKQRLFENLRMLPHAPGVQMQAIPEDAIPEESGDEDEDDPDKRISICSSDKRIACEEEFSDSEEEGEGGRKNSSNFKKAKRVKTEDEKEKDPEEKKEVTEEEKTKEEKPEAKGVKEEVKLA

- IC50 (HDAC1; [1]): 91 ± 6 nM
- Selectivity factor (SF) = HDAC1 IC50/HDAC6 IC50 (HDAC1; selectivity for HDAC6 over HDAC1): 91
- HDAC1 average enzyme isoform activity (percentage of full enzyme activity) (HDAC1; [2]): 36.3%
- IC50 (HDAC11; [1]): 290 ± 35 nM
- Selectivity factor (SF) HDAC11 against HDAC6 (HDAC11; selectivity for HDAC6 over HDAC11): 290
- HDAC11 average enzyme isoform activity (percentage of full enzyme activity) (HDAC11; [2]): 67.5%
- IC50 (HDAC6; [1]): 1 ± 0.005 nM
- HDAC6 average enzyme isoform activity (percentage of full enzyme activity) (HDAC6; single point, inhibitor 0.01 μM, average of two measurements, ±2%): 20.4%
SMILES: O=C(CCCCCN1C(=O)c2cccc3cc(NC(=O)c4ccccc4)cc(c23)C1=O)NO [KNH019]
